From patent publication US20230331781A1, “PAR4 DERIVED PEPTIDES, ANALOGS AND USES THEREOF” (Yissum Research Development Company of the Hebrew …, priority 2019, published 2023)
Entries after “also recorded” stand apart in the source; their conditions may differ. Numbered stars: 1 amine (or outer) side, 2 acyl side, 3 side chain; on linkers, the order of the positions; unused ones are H or OH. Bridge positions count the residues as written; N and C are the ends. Square brackets hold non-standard residues; d marks the D form. Ends that are not written are not given here. GlyBU(C4) = Gly building unit (N-alpha-functionalized Gly) carrying a C4 alkyl chain (n = m = 4), bridged through a urea group; CO = O=C([*:1])[*:2]

What was measured:
Lovo cancer cell-line = experiment: Wound-scratch migration assay, Lovo cell monolayers; assay type: cell-based; conditions: AYPGKF activated, 24 hr, 150 μM and 300 μM, FIG. 8D-8K
Protocol: (§1) HEK293 cells were transiently transfected with flg-Par4 followed by AYPGKF PAR4 activation in the presence and absence of PAR4c (4-4) within the range of 50 nM-150 μM. IP of cell lysates following different periods of activation was carried out using anti flg abs. Detection of Akt was performed by anti Akt abs. β-actin serves as a control gene for loading. […] Matrigel invasion before and after AYPGKF PAR4 activation and in the presence and absence of PAR4 c(4-4) inhibitor in the activated PAR4 cells. A range between 50 nM-150 μM PAR4 c(4-4) inhibitor was applied. While ample Matrigel invasion is seen following PAR4 activation, this was attenuated in the presence of the inhibitor in all the concentrations used, similar to control prior to PAR4 activation. FIG. 8C—Histograms represent quantification of the cells/HPF invaded the Matrigel layer. Unpaired Student's t test was used. This experiment is a representative of three independent experiments performed in triplicates. FIG. 8D-8K show Wound-scratch migration assay. Lovo cancer cell-line was grown to confluence. Then, an equal wound scratch was introduced to Lovo cell monolayers. Monolayers were serum starved overnight and PAR4 was activated or not with AYPGKF. One hour prior to activation PAR4 c(4-4), either at 150 μM or 300 μM concentrations was added to the monolayers.
Migration was evaluated by “wound scratch assay” applied. […]

RKO/hPar4 tumors = experiment: Pre-formed RKO/hPar4 tumors in nude mice; assay type: in vivo; conditions: injection s.c. near tumor started 3 weeks post inoculation (~1 cm tumors), 5 mg/kg
Protocol: Tumors generated by the RKO/Par4 clone/s (1×10^6 cells, subcutaneously). Injections of the inhibitor Pc(4-4) have started 3 weeks post cell inoculation (5 mg/kg, every other day). FIG. 12B—levels of Par4 in stable clone/s of RKO cells. Error bars show s.d.; *** P<0.001. FIG. 12C—pre-formed tumors. Mice bearing tumors formed (˜1 cm) prior to the Pc(4-4) injection. FIG. 12D tumor volume (cm3). Tumors generated throughout the experimental period versus injections of Pc(4-4) initiated 3 weeks post cell inoculation. Each treatment group contained 7 mice. This is a representative of three times performed experiments. Error bars show s.d.; ** P<0.01.
In this experimental design, RKO/hPar4 clone/s (1×10^6 cells) were implanted in nude mice (Par4 levels in the clones) (FIG. 12A-12D). Tumors were slowly formed (during 3 weeks). At the time tumors were distinctly observed (˜1 cm length, FIG. 12C), the Pc(4-4) inhibitor was injected s.c. in the vicinity of the tumor site (3×week; 5 mg/kg). At the time the experiment was terminated large RKO/hPar4 tumors were observed. […] Activation of PAR4 leads to the phosphorylation of EGFR. AYPGKF activation of PAR4 leads to pTyr-EGFR. This was shown by co-transfection of HEK293 cells with hPar4 and egfr followed by AYPGKF PAR4 activation. Western blot detection of EGFR Tyr (Y)-phosphorylation (pY-EGFR), was carried-out by anti phospho-Tyr antibodies (FIG. 13A). […]

Lovo colon cancer cells = experiment: Matrigel invasion of Lovo colon cancer cells after AYPGKF PAR4 activation; assay type: cell-based; conditions: PAR4 activated Lovo cells, 50 nM-150 μM, FIGS. 8B and 8C
Protocol: as §1, with “Monolayers were serum starved overnight and PAR4 was activated or not with AYPGKF. One hour prior to activation PAR4 c(4-4), either at 150 μM or 300 μM concentrations was added to the monolayers.” left out
When we analyzed the impact of Pc(4-4) on the capability of activated PAR4 in Lovo colon cancer cell line to invade Matrigel, a robust invasion is seen (FIG. 8B), inhibited in the presence of Pc(4-4). […]

pEGFR = experiment: PAR4 induced pEGFR in MDA-MB-231 cells (Western blot); assay type: cell-based, human; conditions: endogenous PAR4 and EGFR, AYPGKF 200 μM, FIG. 17
Protocol: Activation of PAR4 induces phosphorylation of EGFR. This is seen 15 min following AYPGKF the synthetic hexa peptide application for PAR4 activation. MDA-231 cells were serum starved over night following AYPGKF PAR4 activation (200 μM) for 5-60 min. Detection by Western blot analyses of pY-EGFR and EGFR was performed using either anti-phospho tyrosine or anti EGFR antibodies respectively. PAR4 activation induces EGFR tyrosine phosphorylation within 15 min.
We have performed immunohistochemical (IHC) staining analyses of EGFR in Her2/Neu and TN breast cancer patient tissues. Analyses have indicated the presence of EGFR in both HER2/Neu as also in TN breast cancer tissue biopsy specimen (FIGS. 16A and 16B, respectively). Pc(4-4) Inhibits PAR4 Induced pEGFR in MDA-MB-231 Cells MDA-MB-231 cells were serum starved overnight following AYPGKF PAR4 activation (200 μM) for 5-60 min in the presence and absence of Pc(4-4) (200 μM). Detection by Western blot analyses of pEGFR and EGFR was performed using either anti-phosphotyrosine or anti-EGFR antibodies (1:1000 dilution), respectively. […] AYPGKF activation of PAR4 leads to pTyr-EGFR in MDA-231 cells (see FIG. 17). […] In the presence of Pc(4-4) cyclic peptide (right panel) potently (200 μM) inhibition of the phosphorylation of EGFR is observed (FIG. 17). […]

**Q.** How did the “inhibition of migration/proliferation (wound scratch)” value (Lovo cancer cell-line) turn out when “Pc(4-4): backbone cyclic analog of Formula I, m=n=4, ring size 30 atoms (S[GlyBU(C4)]EFRDK[GlyBU(C4)]; bridge 2-8 via CO; not fully specified; printed as SZ1EFRDKX3)” was run?
**A.** marked inhibition

**Q.** What about the “inhibition of migration/proliferation (wound scratch)” value (Lovo cancer cell-line; listed as PAR4 c(4-4)) of the same substance?
**A.** inhibits

**Q.** What about the “size of pre-formed tumors” value (RKO/hPar4 tumors) of the same substance?
**A.** distinctly smaller tumors; also recorded: inhibits

**Q.** What about the “inhibition of Matrigel invasion” value (Lovo colon cancer cells) of the same substance?
**A.** inhibited

**Q.** And the “inhibition of Matrigel invasion” value (Lovo colon cancer cells; listed as PAR4 c(4-4))?
**A.** inhibits; also recorded: attenuated

**Q.** What about the “inhibition of PAR4 induced phosphorylation of EGFR” value (pEGFR) of the same substance?
**A.** potently inhibited
